Patent US20090123376A1, “THERAPEUTIC AGENTS WITH DECREASED TOXICITY” (priority 2004, published 2009)
Non-standard residues stand in square brackets, D forms with d. Residues, ends and D or L forms follow the SMILES beside them. *: point of attachment. Dolaproine = CO[C@@H]([C@@H]1CCCN1)[C@@H](C)C(=O)O; Dil = CC[C@H](C)[C@H](NC)[C@@H](CC(=O)O)OC; X1 = C[C@@H](N*)[C@@H](O)c1ccccc1; NMeV = CN[C@H](C(=O)O)C(C)C

Key:
[1] = Toxicity of IgG-MMAE, F(ab')2-MMAE conjugates and free MMAE in rats (Example 3); format: in vivo, Female Spraque-Dawley (SD) rats
Method: Female Spraque-Dawley (SD) rats weighing between 75-80 grams (Charles River Laboratories, Hollister, Calif.) were used in the following studies to compare the toxicity of free MMAE, Fab-MMAE and F(ab′)2-MMAE conjugates.
The body surface area was calculated as follows: [{(body weight in grams to 0.667 power)×11.8}/10000]. (Guidance for Industry and Reviewers. Estimating the Safety Starting Dose in Clinical Trials for Therapeutics in Adult Healthy Volunteers. U.S. Department of Health and Human Services Food and Drug Administration, Center for Drug Evaluation and Research (CDER), Center for Biologics Evaluation and research (CBER), December 2002).
General clinical observations were performed daily. Morbidity and mortality checks were performed twice daily (AM and PM). The body weights of the animals were measured pre-dose on Study Day 1 and daily thereafter. Whole blood was collected into EDTA containing tubes for hematology parameters (e.g., mean serum AST levels, ALT levels, GGT levels and billirubin levels) and differential cell counts (e.g., mean white blood cell counts and platelet counts). Whole blood was collected into serum separator tubes for clinical chemistry parameters. Blood samples were collected pre-dose on Study Day-4, on Study Day 3 and on Day 5 at necropsy. Whole blood was also collected into lithium heparin containing tubes at necropsy and the plasma was frozen at −70° C. for later analysis. The following tissues were collected at necropsy: liver, kidneys, heart, thymus, spleen, brain, sternum and sections of the GI tract, including stomach, large and small intestine. At necropsy, only spleen and thymus were weighed. All statistical analyses were done on Day 5 body weights using a One Way ANOVA, Tukey's test, (SigmaStat 2.03 Software).

[2] = test system: MMTV-HER2 transgenic mammary tumors (Fo5); conditions: established MMTV-HER2 transgenic mammary tumors (Fo5)
Method: Log Cell Kill analyses based on tumor doubling times were conducted. The Log Cell Kill analysis uses a mathematical computation of tumor growth delay based on the time it takes for tumors to double in size after treatment begins compared to controls.

[3] = 2105 μg MMAE/m2, day 3 (Herceptin-vc-MMAE days 3 and 5)
[4] = 2105 μg MMAE/m2 single iv bolus

Row | Compound | morphologic changes (histology) ([1]; 2105 μg MMAE/m2) | liver associated serum enzymes / liver function tests [1, 3] | platelet and white blood cell counts [1, 3] | body weight lost by Day 3 compared with Day 1 weights [1, 4] [grams] | weight loss, comparison between groups [1, 4] | clinical observations ([1]; 2105 μg MMAE/m2 single iv bolus, Study Day 3) | response of the Fo5 tumor line [2]
1 | CC[C@H](C)[C@@H]([C@@H](CC(=O)N1CCC[C@H]1[C@H](OC)[C@@H](C)C(=O)N[C@H](C)[C@@H](O)c1ccccc1)OC)N(C)C(=O)[C@@H](NC(=O)[C@@H](NC)C(C)C)C(C)C [free MMAE, monomethylauristatin] (H-[NMeV]V[Dil][Dolaproine]-X1) | most severe | highest elevations in liver associated serum enzymes ALT, AST and GGT | lowest platelet and white blood cell counts | 12 | comparable weight loss | moribund | 
2 | Herceptin® |  |  |  |  |  |  | non-responsive
